Values of other authors as cited in patent publication US7638651B2, “Substituted cyclohexanones” (Auspex Pharmaceuticals, priority 2007, dated 2009).

Columns and labels:
[1] = for half-life: ketamine: depending on the mode of administration

Compound | half-life [1] | potency relative to the parent drug (as potent as the parent drug (ketamine)) | potency relative to the R-(−) isomer (more potent than the R-(−) isomer) | blood to plasma ratio ([1]; in vivo)
NC1(c2ccccc2Cl)CCCCC1=O (centres unmarked) [Norketamine, N-desmethylketamine] | about five | roughly one third | – | –
CN[C@]1(c2ccccc2Cl)CCCCC1=O (single isomer, unassigned) [S-(+) isomer] | – | – | approximately four | –
CNC1(c2ccccc2Cl)CCCCC1=O (centres unmarked) [Ketamine] | two to about five | – | – | ~0.82
